From patent US8653089B2, “Heterocyclic compounds and methods of use” (F. Hoffmann-La Roche AG, priority 2011, dated 2014)

Assays:
p110 delta = molecular target: T1, p110 delta (Homo sapiens, UniProt O00329); experiment: PI3K isoform inhibition assay (fluorescence polarization), p110 delta; type: biochemical; settings: p110 delta binding IC50, selected compounds from Table 1
T1 construct: purchased Upstate Group, Millipore; Dundee, UK
Procedure: PI3K enzymatic activity was assayed by measuring the amount of product phosphatidylinositol 3,4,5-phosphate (PIP3) formed from substrate 4,5 phosphatidylinositol 4,5-phosphate (PIP2) using a fluorescence polarization displacement assay. The decrease in fluorescence polarization of a fluorescent PIP3 probe is measured as it is displaced from a PIP3-binding protein GRP-1detector by PI3K-catalyzed product. Assays were conducted in 384-well black Proxiplates in the presence of 10 mM Tris (pH 7.5), 50 mM NaCl, 4 mM MgCl2, 5% glycerol, 25 μM ATP, 10 μM PIP2 (Echelon Biosciences), 0.05% 3-[(3-cholamidopropyl)dimethylammonio]-1-propanesulfonate, 1 mM dithiothreitol, and 2% DMSO. The kinase reactions were initiated by the addition of 40 ng/mL p110α/p85α, 300 ng/mL p110β/p85α, 40 ng/mL p110γ, or 40 ng/mL p110δ/p85α (Upstate Group, Millipore; Dundee, UK), and 10 μM PIP2 (Echelon Biosciences) to the wells. The reactions were stopped at timepoints that yielded a fixed change in fluorescence polarization consistent with initial rate conditions (typically 30 minutes), by the addition of 12.5 mM EDTA, 100 nM GRP-1 detector, and 5 nM tetramethylrhodamine-labeled PIP3 (TAMRA-PIP3; Echelon Biosciences). After 60 minutes of incubation at room temperature to allow equilibration of labeled and unlabeled PIP3 binding, the parallel and perpendicular components of the fluorescence emissions from each sample were measured at an excitation wavelength of 530 nm and an emission wavelength of 590 nm using an Envision fluorescent plate reader with a rhodamine filter (PerkinElmer Life and Analytical Sciences; Wellesley, Mass.). The assay is capable of detecting 0.1-2.0 μM PIP3 product. The IC50 values were obtained by fitting the dose-dependent inhibition data to a 4-parameter equation using Assay Explorer software (MDL, San Ramon, Calif.). […]
(§1) Recombinant PI3K p110 isoforms alpha, beta, and delta may be prepared and purified according to US 2008/0275067 from recombinant PI3K heterodimeric complexes consisting of a p110 catalytic subunit and a p85 regulatory subunit overexpressed using the BAC-TO-BAC® HT baculovirus expression system (GIBCO/BRL), and then purified for use in biochemical assays. The four Class I PI 3-kinases are cloned into baculovirus vectors as follows:
p110 delta: A FLAG™-tagged (Eastman Kodak Co., U.S. Pat. No. 4,703,004; U.S. Pat. No. 4,782,137; U.S. Pat. No. 4,851,341) version of human p110.delta (Chantry et al., J. Biol. Chem. (1997) 272:19236-41) is subcloned using standard recombinant DNA techniques into the BamHI-XbaI site of the insect cell expression vector pFastbac HTb (Life Technologies, Gaithersburg, Md.), such that the clone is in frame with the His tag of the vector.

p110 alpha = molecular target: T2, p110 alpha (Homo sapiens, UniProt P42336); experiment: PI3K isoform inhibition assay, p110 alpha (delta/alpha selectivity); type: biochemical; settings: delta/alpha selectivity ratio
T2 construct: purchased Upstate Group, Millipore; Dundee, UK
Procedure: PI3K enzymatic activity was assayed by measuring the amount of product phosphatidylinositol 3,4,5-phosphate (PIP3) formed from substrate 4,5 phosphatidylinositol 4,5-phosphate (PIP2) using a fluorescence polarization displacement assay. The decrease in fluorescence polarization of a fluorescent PIP3 probe is measured as it is displaced from a PIP3-binding protein GRP-1detector by PI3K-catalyzed product. Assays were conducted in 384-well black Proxiplates in the presence of 10 mM Tris (pH 7.5), 50 mM NaCl, 4 mM MgCl2, 5% glycerol, 25 μM ATP, 10 μM PIP2 (Echelon Biosciences), 0.05% 3-[(3-cholamidopropyl)dimethylammonio]-1-propanesulfonate, 1 mM dithiothreitol, and 2% DMSO. The kinase reactions were initiated by the addition of 40 ng/mL p110α/p85α, 300 ng/mL p110β/p85α, 40 ng/mL p110γ, or 40 ng/mL p110δ/p85α (Upstate Group, Millipore; Dundee, UK), and 10 μM PIP2 (Echelon Biosciences) to the wells. The reactions were stopped at timepoints that yielded a fixed change in fluorescence polarization consistent with initial rate conditions (typically 30 minutes), by the addition of 12.5 mM EDTA, 100 nM GRP-1 detector, and 5 nM tetramethylrhodamine-labeled PIP3 (TAMRA-PIP3; Echelon Biosciences). After 60 minutes of incubation at room temperature to allow equilibration of labeled and unlabeled PIP3 binding, the parallel and perpendicular components of the fluorescence emissions from each sample were measured at an excitation wavelength of 530 nm and an emission wavelength of 590 nm using an Envision fluorescent plate reader with a rhodamine filter (PerkinElmer Life and Analytical Sciences; Wellesley, Mass.). The assay is capable of detecting 0.1-2.0 μM PIP3 product. The IC50 values were obtained by fitting the dose-dependent inhibition data to a 4-parameter equation using Assay Explorer software (MDL, San Ramon, Calif.).
Alternatively, inhibition of PI3K was determined in a radiometric assay using purified, recombinant enzyme and ATP at a concentration of 1 uM. The Formula I compound was serially diluted in 100% DMSO. The kinase reaction was incubated for 1 h at room temperature, and the reaction was terminated by the addition of PBS. IC50 values were subsequently determined using sigmoidal dose-response curve fit (variable slope).
The same protocol may be used to establish IC50 values for p110α (alpha) PI3K binding.
as §1
p110 alpha: Similar to the method used for p110 delta, described above, a FLAG™-tagged version of p110 alpha (Volinia et al (1994) Genomics, 24(3):427-77) was subcloned in BamH1-HindIII sites of pFastbac HTb (Life Technologies) such that the clone was in frame with the His tag of the vector.

[1] = system: CD69 expression on CD20 positive cells in human whole blood stimulated by anti-IgM; experiment: CD69 Whole Blood Assay; type: cell-based; settings: concentration decreasing by 50% the percent CD69 positive cells that are also CD20 positive, 20 hours
Description: Human blood is obtained from healthy volunteers, with the following restrictions: 1 week drug-free, non-smokers. Blood (approximately 20 mls to test 8 compounds) is collected by venipuncture into Vacutainer tubes with sodium heparin.
Cynomolgus monkey blood is obtained courtesy of the LAT group from monkeys not previously exposed to, or after a washout period from, chemical dosing. Additional cyno blood draws may be collected during the course of pharmacokinetic or toxicology studies. Blood (25-30 mls for naïve monkeys or 3-4 mls from monkeys on studies requiring repeated draws) is collected by venipuncture into Vacutainer tubes with sodium heparin.
Solutions of Formula I compounds at 1000 or 2000 μM in PBS (20×), are diluted by three-fold serial dilutions in 10% DMSO in PBS for a nine point dose-response curve. An aliquot of 5.5 μl of each compound is added in duplicate to a 2 ml 96-well plate; 5.5 μl of 10% DMSO in PBS is added as control and no-stimulus wells. Human whole blood—HWB (100 μl) is added to each well. After mixing the plates are incubated at 37° C., 5% CO2, 100% humidity for 30 minutes. Goat F(ab′)2 anti-human IgM (10 μl of a 500 μg/ml solution, 50 μg/ml final) is added to each well (except the no-stimulus wells) with mixing and the plates are incubated for an additional 20 hours. At the end of the 20 hour incubation, samples are incubated with fluorescent labeled antibodies for 30 minutes, at 37° C., 5% CO2, 100% humidity. Include induced control, unstained and single stains for compensation adjustments and initial voltage settings. Samples are then lysed with Pharmingen Lyse according to the manufacturer's instructions. Samples are then transferred to a 96 well plate suitable to be run on the AMS 96 well system on the BD Calibur FACs machine. Data acquired and Mean Fluorescence Intensity values were obtained using Cell Quest Software. Results are initially analyzed by FACS analysis software (Flow Jo). […] The […] values are calculated by ActivityBase using Xlfit version 3, equation 201.

T2 sequence (P42336 whole entry, canonical isoform): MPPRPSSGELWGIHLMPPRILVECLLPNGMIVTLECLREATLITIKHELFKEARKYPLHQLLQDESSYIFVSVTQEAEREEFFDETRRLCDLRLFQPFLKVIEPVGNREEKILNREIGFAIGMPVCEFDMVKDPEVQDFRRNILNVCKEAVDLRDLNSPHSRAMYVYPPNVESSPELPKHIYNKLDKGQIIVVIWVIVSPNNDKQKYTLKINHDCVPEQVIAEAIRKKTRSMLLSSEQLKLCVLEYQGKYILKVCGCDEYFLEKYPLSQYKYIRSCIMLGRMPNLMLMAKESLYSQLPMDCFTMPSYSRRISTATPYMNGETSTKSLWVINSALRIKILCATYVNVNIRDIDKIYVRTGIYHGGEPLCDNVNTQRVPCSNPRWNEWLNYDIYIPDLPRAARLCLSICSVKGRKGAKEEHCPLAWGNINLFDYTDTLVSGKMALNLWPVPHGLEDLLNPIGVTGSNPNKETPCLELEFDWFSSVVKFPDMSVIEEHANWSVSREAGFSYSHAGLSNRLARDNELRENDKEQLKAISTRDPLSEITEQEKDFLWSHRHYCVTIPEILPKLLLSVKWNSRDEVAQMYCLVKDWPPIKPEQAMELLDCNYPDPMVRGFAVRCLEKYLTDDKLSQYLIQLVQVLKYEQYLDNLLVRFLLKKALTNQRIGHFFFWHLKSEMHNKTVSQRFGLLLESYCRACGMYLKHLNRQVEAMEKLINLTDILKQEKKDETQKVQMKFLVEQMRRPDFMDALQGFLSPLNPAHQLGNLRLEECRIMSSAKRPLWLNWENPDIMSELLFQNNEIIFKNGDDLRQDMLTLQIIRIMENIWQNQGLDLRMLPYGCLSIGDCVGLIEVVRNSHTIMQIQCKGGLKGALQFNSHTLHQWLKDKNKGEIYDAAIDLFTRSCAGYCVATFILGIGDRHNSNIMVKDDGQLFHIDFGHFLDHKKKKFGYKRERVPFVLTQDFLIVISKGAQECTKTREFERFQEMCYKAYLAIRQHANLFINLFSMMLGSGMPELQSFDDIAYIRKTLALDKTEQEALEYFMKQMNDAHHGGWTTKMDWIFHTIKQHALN
T2 sequence (P27986 whole entry partner, canonical isoform): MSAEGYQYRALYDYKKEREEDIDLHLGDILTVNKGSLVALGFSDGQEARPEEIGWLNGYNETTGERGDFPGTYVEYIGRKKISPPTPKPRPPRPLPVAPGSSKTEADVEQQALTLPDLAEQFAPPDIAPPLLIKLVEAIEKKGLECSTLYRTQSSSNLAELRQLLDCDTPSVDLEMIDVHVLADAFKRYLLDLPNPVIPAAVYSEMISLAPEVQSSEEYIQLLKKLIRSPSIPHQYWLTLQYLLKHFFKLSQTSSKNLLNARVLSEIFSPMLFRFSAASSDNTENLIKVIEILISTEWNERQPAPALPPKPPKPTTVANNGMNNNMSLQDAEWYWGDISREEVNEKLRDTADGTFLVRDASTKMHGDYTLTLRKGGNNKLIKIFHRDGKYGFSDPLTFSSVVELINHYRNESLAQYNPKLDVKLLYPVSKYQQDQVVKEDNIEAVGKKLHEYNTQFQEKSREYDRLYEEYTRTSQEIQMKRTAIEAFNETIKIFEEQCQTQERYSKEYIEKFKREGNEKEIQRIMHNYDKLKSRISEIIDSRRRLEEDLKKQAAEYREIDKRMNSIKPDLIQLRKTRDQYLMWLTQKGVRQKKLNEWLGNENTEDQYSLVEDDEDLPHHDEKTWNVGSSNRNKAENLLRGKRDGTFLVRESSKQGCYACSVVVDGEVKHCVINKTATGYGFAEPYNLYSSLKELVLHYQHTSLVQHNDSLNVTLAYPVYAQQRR
T1 sequence (O00329 whole entry, canonical isoform): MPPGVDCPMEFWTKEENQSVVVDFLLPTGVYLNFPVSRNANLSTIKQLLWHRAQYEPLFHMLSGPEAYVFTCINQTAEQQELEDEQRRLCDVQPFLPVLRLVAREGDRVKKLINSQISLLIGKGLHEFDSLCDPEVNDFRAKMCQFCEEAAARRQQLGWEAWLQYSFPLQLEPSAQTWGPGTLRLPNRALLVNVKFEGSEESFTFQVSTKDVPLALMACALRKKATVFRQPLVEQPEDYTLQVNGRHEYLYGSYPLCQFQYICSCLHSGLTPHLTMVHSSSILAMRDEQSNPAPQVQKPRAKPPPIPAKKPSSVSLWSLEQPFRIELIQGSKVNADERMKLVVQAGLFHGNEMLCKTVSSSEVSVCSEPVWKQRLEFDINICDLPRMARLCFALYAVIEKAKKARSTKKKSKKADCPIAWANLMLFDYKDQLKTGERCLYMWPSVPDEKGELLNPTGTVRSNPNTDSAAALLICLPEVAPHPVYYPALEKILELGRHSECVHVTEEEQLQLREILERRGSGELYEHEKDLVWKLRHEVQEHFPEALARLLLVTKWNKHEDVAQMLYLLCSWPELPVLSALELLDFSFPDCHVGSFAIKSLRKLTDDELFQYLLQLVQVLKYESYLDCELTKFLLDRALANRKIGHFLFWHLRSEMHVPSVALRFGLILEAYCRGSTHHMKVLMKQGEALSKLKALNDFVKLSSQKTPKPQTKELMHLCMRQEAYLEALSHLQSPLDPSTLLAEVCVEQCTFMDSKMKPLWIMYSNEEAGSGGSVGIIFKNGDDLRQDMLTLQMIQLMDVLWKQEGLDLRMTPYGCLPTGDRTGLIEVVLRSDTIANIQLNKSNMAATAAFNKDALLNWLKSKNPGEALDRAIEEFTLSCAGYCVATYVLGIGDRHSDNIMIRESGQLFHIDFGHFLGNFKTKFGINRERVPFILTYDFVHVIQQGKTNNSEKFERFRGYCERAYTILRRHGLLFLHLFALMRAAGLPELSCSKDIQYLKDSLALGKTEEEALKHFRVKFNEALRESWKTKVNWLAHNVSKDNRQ
T1 sequence (P27986 whole entry partner, canonical isoform): as the sequence (P27986 whole entry partner, canonical isoform) above

SMILES	IC50 (p110 delta)	IC50 p110 alpha/IC50 p110 delta (greater than or equal to, ≧) (p110 alpha)	IC50 [1]
CC(Nc1ncnc2[nH]cnc12)c1nc2ccccc2n1-c1ccccc1 (racemic) [Example 102, N-(1-(1-phenyl-1H-benzo[d]imidazol-2-yl)ethyl)-9H-purin-6-amine]	9.1 nM	≥ 230	
CC(Nc1ncnc2[nH]cnc12)c1sc2ccccc2c1-c1ccccc1 (centres unmarked) [Example 101, N-(1-(3-phenylbenzo[b]thiophen-2-yl)ethyl)-9H-purin-6-amine]	52.3 nM	≥ 40	
CC(Nc1ncnc2[nH]cnc12)c1oc2ccccc2c1-c1ccccc1 (centres unmarked) [Example 103, N-(1-(3-phenylbenzofuran-2-yl)ethyl)-9H-purin-6-amine]	33 nM	≥ 64	
Nc1ncnc2c1ncn2Cc1nc2ccccc2n1-c1ccccc1 [Example 106, 9-((1-phenyl-1H-benzo[d]imidazol-2-yl)methyl)-9H-purin-6-amine]	189 nM	≥ 11	
C[C@H](Nc1ncnc2[nH]cnc12)c1nc2cccnc2n1-c1ccccc1 [Example 114, (S)—N-(1-(3-phenyl-3H-imidazo[4,5-b]pyridin-2-yl)ethyl)-9H-purin-6-amine]	20.1 nM	≥ 104	83.4 nM
CC(=O)N1CCC(n2c([C@H](C)Nc3ncnc4[nH]cnc34)nc3ccccc32)CC1 [Example 115, (S)-1-(4-(2-(1-(9H-purin-6-ylamino)ethyl)-1H-benzo[d]imidazol-1-yl)piperidin-1-yl)ethanone]	13.7 nM	≥ 153	
CC[C@H](Nc1ncnc2[nH]cnc12)c1nc2ccccc2n1-c1ccccc1 [Example 119, (S)—N-(1-(1-phenyl-1H-benzo[d]imidazol-2-yl)propyl)-9H-purin-6-amine]	1.59 nM	≥ 1320	
C[C@H](Nc1ncnc2[nH]cnc12)c1nc2c(Cl)cccc2n1-c1ccccc1 [Example 120, (S)—N-(1-(4-chloro-1-phenyl-1H-benzo[d]imidazol-2-yl)ethyl)-9H-purin-6-amine]	4.46 nM	≥ 470	
C[C@H](Nc1ncnc2[nH]cnc12)c1nc2ccc(F)cc2n1-c1ccccc1 [Example 123, (S)—N-(1-(6-fluoro-1-phenyl-1H-benzo[d]imidazol-2-yl)ethyl)-9H-purin-6-amine]	0.854 nM	≥ 2459	29.1 nM
C[C@H](Nc1ncnc2[nH]cnc12)c1nc2cccc(F)c2n1-c1ccccc1 [Example 124, (S)—N-(1-(7-fluoro-1-phenyl-1H-benzo[d]imidazol-2-yl)ethyl)-9H-purin-6-amine]			67.1 nM
C[C@H](Nc1ncnc2[nH]cnc12)c1nc2ccccc2n1C1CCCOC1 (stereo partly drawn) [Example 128, N-((1S)-1-(1-(tetrahydro-2H-pyran-3-yl)-1H-benzo[d]imidazol-2-yl)ethyl)-9H-purin-6-amine]	36.2 nM	≥ 58	
C[C@H](Nc1ncnc2[nH]cnc12)c1nc2ccccc2n1C1CCN(C2COC2)CC1 [Example 129, (S)—N-(1-(1-(1-(oxetan-3-yl)piperidin-4-yl)-1H-benzo[d]imidazol-2-yl)ethyl)-9H-purin-6-amine]	63.4 nM	≥ 33	
C[C@H](Nc1ncnc2[nH]cnc12)c1nc2cccc(Cl)c2n1-c1ccccc1 [Example 138, (S)—N-(1-(7-chloro-1-phenyl-1H-benzo[d]imidazol-2-yl)ethyl)-9H-purin-6-amine]			87.6 nM
C[C@H](Nc1ncnc2sccc12)c1nc2ccccc2n1-c1ccccc1 [Example 143, (S)—N-(1-(1-phenyl-1H-benzo[d]imidazol-2-yl)ethyl)thieno[2,3-d]pyrimidin-4-amine]	87.9 nM	≥ 24	
CC[C@H](Nc1ncnc2nc[nH]c12)c1nc2ccc(F)cc2n1-c1ccccc1 [Example 160, (S)—N-(1-(6-fluoro-1-phenyl-1H-benzo[d]imidazol-2-yl)propyl)-7H-purin-6-amine]			179 nM
